Experimental data published in patent US9333268B2, “Methods of treatment with arginine deiminase” (Polaris Group, priority 2012, dated 2016).
Structures can show the parent of a compound that is named as a salt.

Columns and labels:
SK-LC-13 cells = experiment: FACS analysis of apoptosis by sub-G1 DNA content (propidium iodide); assay type: cell-based, human; conditions: 25 nM, 72 h
Protocol: Apoptosis was measured by FACS of propidium-iodide-stained cells as detailed by Riccardi et al (Riccardi and Nicoletti, Nat Protoc 1(3):1458-1461, 2006). Cells were plated in 24-well plates and treated with ADI-PEG 20 for […]. Cells were then harvested, washed and fixed in 70% ethanol. DNA was then stained using 20 μg ml^−1 propidium iodide containing 10 μgml^−1 DNAse-free RNAse A (Sigma-Aldrich). Cells were then read on a BD FACSCalibur (BD Biosciences) and analyzed using Flow Jo Software (Tree Star, Ashland, Oreg., USA).
In order to determine the possible mechanism of the antiproliferative effects of ADI-PEG 20 a FACS analysis of apoptosis by sub-G1 DNA content was performed. Cells were treated for 72 h before the analysis was performed.

SK-LC-13 = experiment: Western blot of autophagy-related protein LC3-II; assay type: cell-based, human; conditions: 24 hour incubation
From the text: Following washing, the membranes were then probed with the appropriate secondary antibody before proteins were finally visualized using ECL reagent (Perkin-Elmer, Fremont Calif., USA).
An assay for the formation of the autophagy-related protein LC3-II assessed if treatment with ADI-PEG 20 was able to induce cellular autophagy in SCLC. […] Chloroquine is a known inhibitor of autophagy that disrupts normal lysosomal functions, and thus results in an increase in the cellular level of LC3-II.

[1] = system: human pancreatic cancer cell line MIA-PaCa2; experiment: Western blot/ELISA of caspase 3 cleavage, LC3 and p62; assay type: cell-based; conditions: ChQ 5 μM added to ADI-PEG 0.3 μg/mL, 72 hours
Protocol: The human pancreatic cancer cell line MIA-PaCa2 was treated in vitro and in vivo with pegylated arginine deiminase (ADI-PEG) alone or in the presence of ChQ. Cell death was measured by propidium iodide (PI)-FACS to determine sub-G1 DNA content, and apoptosis was evaluated by Annexin V-PI flow cytometry. Cleavage of caspase 3 was evaluated by western blots and ELISA. Autophagy was measured by evaluating the expression levels of LC3 and […] p62 (p62) by western blots and ELISA.
In order to determine if ADI induces apoptosis and autophagy in a caspase dependent manner, cells were incubated with either ADI-PEG or a combination of ADI-PEG and ZVAD-fmk, a pan-caspase inhibitor.
The levels of p62, LC3B-I, and LC3B-II were measured by western blot analysis in order to examine autophagic flux.

SMILES: CC[C@@]1(O)C(=O)OCc2c1cc1n(c2=O)Cc2cc3c(CN(C)C)c(O)ccc3nc2-1 [topotecan, Topotecan hydrochloride, reference compound]
- cells in apoptosis (sub-G1 DNA content) (SK-LC-13 cells): around 45%

SMILES: CCN(CC)CCCC(C)Nc1ccnc2cc(Cl)ccc12 (stereo not drawn) [chloroquine, reference compound]
- cellular level of LC3-II (SK-LC-13): very robust expression of LC3-II

SMILES: CCN(CCO)CCCC(C)Nc1ccnc2cc(Cl)ccc12 (stereo not drawn) [ChQ, hydroxychloroquine]
- ADI induced apoptosis [1]: enhanced ADI induced apoptosis
- LC3B-I and LC3B-II [1]: increase in the build up of both LC3B-I and LC3B-II
- autophagic flux [1]: diminished autophagic flux
- level of p62 [1]: increase in the level of p62
